Reference: paper PMC6739329 (Scientific Reports, 2019)
pIC50, pKd: −log10 of the molar value. Where two headings read alike, the source gives them in different places.

Assays:
PKM2 [1] = target: T1, PKM2 (Homo sapiens, UniProt P14618); experiment: Thermal stability assay of PKM2 with salicylates; assay type: binding; conditions: 2 µM PKM2, Tm 42 °C without ligand
T1 construct: each gene was amplified and cloned into pET28a vector for recombinant protein production; 6xHis; made in house; host or cells: Escherichia coli BL21

PKM2 [2] = target: T1, PKM2; experiment: Tryptophan (Trp) intrinsic fluorescence assay of PKM2; assay type: binding; conditions: 1 µM PKM2, 30 min at RT; read-out: Kd (quenching of PKM2 intrinsic fluorescence)
PKM2 [3] = target: T1, PKM2; experiment: In vitro PKM activity assay (LDH-coupled, NADH to NAD+), PKM2; assay type: biochemical; conditions: 1.3 ng/µL PKM2
Protocol: PK activity was measured using a method described previously with minor modifications. In brief, PK activity was measured by monitoring pyruvate-dependent conversion of NADH to NAD^+ by lactate dehydrogenase (LDH). Increasing concentrations of salicylates were incubated with PKM2 (final concentration 1.3 ng/uL) for 30 min at RT in the incubation buffer (50 mM Tris-HCl, pH 7.5, 100 mM KCl, 5 mM MgCl2) before mixing with 1/10 volume of 10X pyruvate kinase reaction buffer (500 mM Tris-HCl, pH 7.5, 500 mM KCl, 50 mM MgCl2, 5 mM PEP (Sigma-Aldrich, P0564), 6 mM ADP (Sigma-Aldrich, A5285), 80 units LDH (Sigma-Aldrich, L1254), 10 mM DTT, and 1.80 mM NADH (SigmaAldrich, N8129)).

HEK293 cells [4] = experiment: In vivo glycolytic activity assay (extracellular lactate); assay type: cell-based, human; conditions: for Reduction of extracellular lactate levels: 15 hrs
Protocol: Data are mean ± SD (n = 3).
Glycolytic activity of HEK293 cells in the absence or presence of different concentrations of salicylates was measured by monitoring the level of lactate produced[33],[34]. HEK293 cells were seeded in 96-well tissue culture plates at a density of 10^4 cells/well in 120 µL of complete medium (DMEM medium supplemented with 10% heat-inactivated FBS). Plates were incubated overnight in a CO2 incubator at 37 °C. […] Following a 15 hr incubation in a CO2 incubator at 37 °C, cellular supernatants were collected and lactate levels were measured by colorimetry according to the manufacturer’s instructions for a glycolysis cell-based assay kit (Cayman, Ann Arbor, Michigan).

HEK293 cells [5] = experiment: Morphology of HEK293 cells treated 15 h with salicylates; assay type: cell-based, human; conditions: 15 h treatment
Description: Data are mean ± SD (n = 3). […] Scale bar = 20 μm.
changes in HEK293 cells. Scale bar = 50 μm.
changes of HEK293 cells. Scale bar = 50 μm.

ENO1 [6] = target: T2, ENO1 (Homo sapiens, UniProt P06733); experiment: Thermal stability assay of ENO1 with salicylates; conditions: 2 µM ENO1, Tm 44 °C in the absence of SA or amoB1
Protocol: Data are mean ± SD (n = 3). Experiments were repeated three times with similar results.
Thermal stability assay was performed with ENO1 and PKM2 as previously described with minor modifications[7].
A thermal stability assay was used to examine the binding activities of ENO1 and PMK2 with salicylates as previously described with minor modifications 6. Purified ENO1 and
final concentration of each protein was 2 μM in 16 μl of reaction buffer (0.1 M HEPES, pH 7.5, 150 mM NaCl, and 5 mM BME). Four μl of a 1:200 dilution of stock SYPRO orange dye (Invitrogen) in reaction buffer was added to achieve a total reaction volume of 20 μl. Thermal melt curves were obtained by heating the protein from 20–95°C and monitoring fluorescence at 590 nm with a CFX96 Real-Time PCR Detection System (Bio-Rad). All curves were obtained in triplicate and averaged.

ENO1 [7] = target: T2, ENO1; conditions: read-out: Kd (quenching of ENO1 intrinsic fluorescence); 1 µM ENO1, 30 min at RT
Protocol: For the Trp intrinsic fluorescence assay, different concentrations of salicylates were incubated with 1 µM ENO1 for 30 min at RT, then Trp emission fluorescence was obtained (excitation/emission = 295 nm/350 nm). […] Data are mean ± SD (n = 3). Experiments were repeated three times with similar results.
Binding of salicylates to ENO1 and PKM2 was assessed using a Trp intrinsic fluorescence assay as previously described[79].
A Trp intrinsic fluorescence assay was used to examine the binding of salicylates to ENO1
The final concentration of each protein was 1 μM in phosphate-buffered saline (PBS) buffer. The mixtures were subjected to excitation wavelength of 295 nm and the Trp emission fluorescence was recorded at 350 nm using a LS55 fluorescence spectrometer (Perkin Elmer). All data were obtained in triplicate and averaged.

ENO1 [8] = target: T2, ENO1; experiment: In vitro ENO1 activity assay (2-PGA to PEP, absorbance at 240 nm)
Protocol: Background signals induced by reaction solutions containing salicylates and 2-PGA, but without ENO1, were subtracted to calculate ΔOD240. […] Percent inhibition was calculated by monitoring the ΔOD240 at 5 min with or without salicylates. Data are mean ± SD (n = 3). Experiments were repeated three times with similar results.
The catalytic activity of ENO1 was tested as previously described with minor modifications[80]. Briefly, increasing concentrations of salicylates were incubated with 0.1 µM ENO1 for 30 min at RT in reaction buffer (10 mM KCl, 5 mM MgSO4, 100 mM triethanolamine pH 7.4).

[9] = target: maltose-binding protein (MBP) (Escherichia coli, UniProt P0AEX9); experiment: Thermal stability assay of maltose-binding protein (negative control protein); conditions: 10 mM SA
PKM1 = PKM1 (Homo sapiens, UniProt P14618); experiment: In vitro PKM activity assay, PKM1; assay type: biochemical; conditions: SA 0.4 mM
[10] = resulting from the required aspirin dosage; cited from earlier work

T2 sequence (P06733 whole entry): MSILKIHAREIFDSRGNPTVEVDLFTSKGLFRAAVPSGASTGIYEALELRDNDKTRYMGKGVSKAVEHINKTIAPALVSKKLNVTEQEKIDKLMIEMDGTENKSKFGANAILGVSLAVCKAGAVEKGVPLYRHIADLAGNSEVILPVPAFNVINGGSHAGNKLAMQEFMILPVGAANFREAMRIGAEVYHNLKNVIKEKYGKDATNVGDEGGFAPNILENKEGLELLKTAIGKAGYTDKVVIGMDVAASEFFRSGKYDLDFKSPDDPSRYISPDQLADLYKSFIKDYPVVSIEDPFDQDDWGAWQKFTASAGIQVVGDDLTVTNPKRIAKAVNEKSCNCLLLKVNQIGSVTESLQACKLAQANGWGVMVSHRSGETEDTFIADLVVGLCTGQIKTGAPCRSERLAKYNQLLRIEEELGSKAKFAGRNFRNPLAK
T1 sequence (P14618 whole entry): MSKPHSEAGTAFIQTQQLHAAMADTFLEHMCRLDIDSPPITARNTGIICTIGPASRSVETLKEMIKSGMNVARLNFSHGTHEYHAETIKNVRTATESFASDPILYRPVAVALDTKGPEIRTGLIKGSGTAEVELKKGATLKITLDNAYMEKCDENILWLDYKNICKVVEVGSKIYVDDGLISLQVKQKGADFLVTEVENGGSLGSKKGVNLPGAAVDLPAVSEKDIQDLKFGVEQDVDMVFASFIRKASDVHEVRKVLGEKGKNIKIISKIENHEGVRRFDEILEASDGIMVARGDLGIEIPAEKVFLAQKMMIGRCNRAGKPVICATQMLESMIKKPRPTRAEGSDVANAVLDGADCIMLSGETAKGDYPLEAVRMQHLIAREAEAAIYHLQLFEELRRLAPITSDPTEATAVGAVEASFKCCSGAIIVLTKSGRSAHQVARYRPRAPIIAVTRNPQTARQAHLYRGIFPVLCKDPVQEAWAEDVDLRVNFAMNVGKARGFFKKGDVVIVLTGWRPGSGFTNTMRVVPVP
Chain of PKM1 (P14618 1-531 isoform P14618-2, species assumed): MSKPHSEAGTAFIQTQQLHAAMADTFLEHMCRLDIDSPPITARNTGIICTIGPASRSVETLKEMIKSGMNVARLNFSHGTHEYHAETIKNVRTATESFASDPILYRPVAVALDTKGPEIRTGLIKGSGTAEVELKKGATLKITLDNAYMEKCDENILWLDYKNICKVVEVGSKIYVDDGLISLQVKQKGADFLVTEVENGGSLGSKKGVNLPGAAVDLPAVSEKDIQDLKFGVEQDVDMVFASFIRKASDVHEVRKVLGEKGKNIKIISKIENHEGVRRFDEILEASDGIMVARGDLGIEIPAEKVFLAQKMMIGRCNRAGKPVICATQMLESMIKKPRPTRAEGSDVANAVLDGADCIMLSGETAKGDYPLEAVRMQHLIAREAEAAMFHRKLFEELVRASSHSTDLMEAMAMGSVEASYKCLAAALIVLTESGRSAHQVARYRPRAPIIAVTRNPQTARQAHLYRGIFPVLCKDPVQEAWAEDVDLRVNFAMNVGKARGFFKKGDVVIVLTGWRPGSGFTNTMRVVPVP

SMILES: COc1cc(CCc2ccccc2)c(C(=O)O)c(O)c1C/C=C(\C)CCC=C(C)C [amoB1, amorfrutin B1]
- Tm of PKM2 (PKM2 [1]; 5 µM amoB1): 42.4 °C
- pKd (PKM2 [2]): 5.49
- pIC50 (PKM2 [3]): 4.82
- Extracellular lactate levels (HEK293 cells [4]; 20–50 µM amoB1, 15 hr): drastically reduced
- Extracellular lactate levels (HEK293 cells [4]; amoB1 up to 10 µM, 15 hr): not substantially altered
- Concentration at which cell deformation was observed (HEK293 cells [5]): above 2 µM
- Concentration with no visible morphological changes of cells (HEK293 cells [5]): Up to 2 µM
- Tm of ENO1 (ENO1 [6]; 12.5 µM amoB1): 45.1 °C
- pKd (ENO1 [7]): 4.57
- Potency of ENO1 inhibition relative to SA (times stronger than SA) (ENO1 [8]; ratio of IC50 values): ~ 84 times
- pIC50 (ENO1 [8]; read-out: IC50 for ENO1 enzymatic activity, 0.1 µM ENO1, […] 2-PGA, ΔOD240 at 5 min): 4.81

SMILES: O=C(O)c1ccccc1O [SA, Salicylic acid]
- Tm of PKM2 (PKM2 [1]; 5 mM SA): 41 °C
- Tm of MBP [9]: not altered
- inhibition at 400 µM (PKM2 [3]; 400 µM SA): ≤ 40%
- Effect on PKM1 enzymatic activity (PKM1): did not alter
- Reduction of extracellular lactate levels (HEK293 cells [4]; 0.5 mM SA): 12%
- Reduction of extracellular lactate levels (HEK293 cells [4]; 1.0 mM SA): 27%
- Concentration at which cells were substantially smaller and more spherical (HEK293 cells [5]): ≥ 20 mM
- Concentration with no detectable morphological deformation of cells (HEK293 cells [5]; microscope): up to 10 mM
- SA in the plasma for analgesic/antipyretic effects [10]: ~ 0.5 mM
- Tm of ENO1 (ENO1 [6]; 5 mM SA): 43.0 °C
- pIC50 (ENO1 [8]): 2.89
